Assay: General observations in test persons using the diet with or without composition
Assay type: in vivo, human
Conditions: diet not adhered to, additional intake
From the text: It was observed that the application of the diet according to the invention by itself leads to a weight reduction. In all the test persons, however, side effects such as weakness and/or indisposition as well as gluttonous attacks were reported. […] This is due to the fact that with the intake of the composition that contains one or several active agents which promote fat burning, utilizable energy is made available and the fat burning is accelerated. A test person reported at the start of the reduction cycle on changing over to the diet in accordance with the invention combined with the simultaneous intake of a composition that contains one or several active agents which promote fat burning, that after 2-3 days, the feeling of indisposition or gluttonousness were no longer to be felt and the diet could be well adhered to.
Therefore, the composition contains, in a preferred embodiment in addition to one or several active agents that promote fat burning, one or several active agents that reduce the breakdown of fat to fatty acids in the intestines. Active agents that reduce the breakdown of fat to fatty acids in the intestines are herein active agents that inhibit enzymes which catalyse the breakdown of the fats (tricylglycerines) to fatty acids and glycerines. […] For a body weight deviating from this value, the quantity is to be appropriately adjusted.

Question: With `C[N+](C)(C)C[C@H](O)CC(=O)[O-]` [L-canitine, (3R)-hydroxy-4-(trimethylammonium)-butyrat] as the compound, how does the weight loss read?
Answer: no weight loss

Source: US20090081320A1, “Method for Weight Reduction” (priority 2005, published 2009)
